# Reference: PubChem BioAssay (NCI)
#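 Dose response: 5 concentrations. Exposure: 48 h. Format: 96-well plates. Endpoint: linear interpolation; highest concentration if not reached. The concentration for full growth arrest is given as TGI.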
# Key:
# Experiment in all cases: DTP human tumour cell line panel, 48 h
# [1] = tested on: 786-0 renal
# [2] = tested on: A549 NSCLC
# [3] = tested on: ACHN renal
# [4] = tested on: CAKI-1 renal
# [5] = tested on: CCRF-CEM leukemia
# [6] = tested on: COLO 205 colon
# [7] = tested on: DLD-1 colon
# [8] = tested on: DMS 114 small cell lung
# [9] = tested on: EKVX NSCLC
# [10] = tested on: HCT-116 colon
# [11] = tested on: HCT-15 colon
# [12] = tested on: HL-60(TB) leukemia
# [13] = tested on: HOP-18 NSCLC
# [14] = tested on: HOP-62 NSCLC
# [15] = tested on: HOP-92 NSCLC
# [16] = tested on: HT29 colon
# [17] = tested on: IGROV1 ovarian
# [18] = tested on: K-562 leukemia
# [19] = tested on: KM12 colon
# [20] = tested on: KM20L2 colon
# [21] = tested on: LXFL 529 NSCLC
# [22] = tested on: M14 melanoma
# [23] = tested on: M19-MEL melanoma
# [24] = tested on: MALME-3M melanoma
# [25] = tested on: MOLT-4 leukemia
# [26] = tested on: NCI-H226 lung
# [27] = tested on: NCI-H23 lung
# [28] = tested on: NCI-H460 lung
# [29] = tested on: NCI-H522 lung
# [30] = tested on: OVCAR-3 ovarian
# [31] = tested on: OVCAR-4 ovarian
# [32] = tested on: OVCAR-8 ovarian
# [33] = tested on: RPMI-8226 leukemia
# [34] = tested on: RXF 393 renal
# [35] = tested on: RXF-631 renal
# [36] = tested on: SF-268 CNS
# [37] = tested on: SF-295 CNS
# [38] = tested on: SF-539 CNS
# [39] = tested on: SK-MEL-2 melanoma
# [40] = tested on: SK-MEL-28 melanoma
# [41] = tested on: SK-MEL-5 melanoma
# [42] = tested on: SK-OV-3 ovarian
# [43] = tested on: SN12C renal
# [44] = tested on: SNB-19 CNS
# [45] = tested on: SNB-75 CNS
# [46] = tested on: SR leukemia
# [47] = tested on: SW-620 colon
# [48] = tested on: TK-10 renal
# [49] = tested on: U251 CNS
# [50] = tested on: UACC-257 melanoma
# [51] = tested on: UACC-62 melanoma
# [52] = tested on: UO-31 renal
# [53] = tested on: XF 498 CNS
# [54] = tested on: A498 renal
# [55] = tested on: DMS 273 small cell lung
# [56] = tested on: HCC-2998 colon
# [57] = tested on: LOX IMVI melanoma
# [58] = tested on: OVCAR-5 ovarian
# [59] = tested on: SNB-78 CNS
compound,measurement,setting,value
O=C(O)C1=CN=C(C(=O)O)NN1,TGI,[1],> 100 µM
same,TGI,[2],> 100 µM
same,TGI,[3],> 100 µM
same,TGI,[4],> 100 µM
same,TGI,[5],> 100 µM
same,TGI,[6],> 100 µM
same,TGI,[7],> 100 µM
same,TGI,[8],> 100 µM
same,TGI,[9],> 100 µM
same,TGI,[10],> 100 µM
same,TGI,[11],> 100 µM
same,TGI,[12],> 100 µM
same,TGI,[13],> 100 µM
same,TGI,[14],> 100 µM
same,TGI,[15],> 100 µM
same,TGI,[16],> 100 µM
same,TGI,[17],> 100 µM
same,TGI,[18],> 100 µM
same,TGI,[19],> 100 µM
same,TGI,[20],> 100 µM
same,TGI,[21],> 100 µM
same,TGI,[22],> 100 µM
same,TGI,[23],> 100 µM
same,TGI,[24],> 100 µM
same,TGI,[25],> 100 µM
same,TGI,[26],> 100 µM
same,TGI,[27],> 100 µM
same,TGI,[28],> 100 µM
same,TGI,[29],> 100 µM
same,TGI,[30],> 100 µM
same,TGI,[31],> 100 µM
same,TGI,[32],> 100 µM
same,TGI,[33],> 100 µM
same,TGI,[34],> 100 µM
same,TGI,[35],> 100 µM
same,TGI,[36],> 100 µM
same,TGI,[37],> 100 µM
same,TGI,[38],> 100 µM
same,TGI,[39],> 100 µM
same,TGI,[40],> 100 µM
same,TGI,[41],> 100 µM
same,TGI,[42],> 100 µM
same,TGI,[43],> 100 µM
same,TGI,[44],> 100 µM
same,TGI,[45],> 100 µM
same,TGI,[46],> 100 µM
same,TGI,[47],> 100 µM
same,TGI,[48],> 100 µM
same,TGI,[49],> 100 µM
same,TGI,[50],> 100 µM
same,TGI,[51],> 100 µM
same,TGI,[52],> 100 µM
same,TGI,[53],> 100 µM
S=C(Nc1ccccc1)Nc1ccccc1SC(/C=C/NNC1=NC(c2ccccc2)C(c2ccccc2)=NN1)c1ccccc1 (stereo not drawn),TGI,[1],> 100 µM
same,TGI,[54],> 100 µM
same,TGI,[2],> 100 µM
same,TGI,[3],> 100 µM
same,TGI,[4],> 100 µM
same,TGI,[5],> 100 µM
same,TGI,[6],> 100 µM
same,TGI,[7],> 100 µM
same,TGI,[8],> 100 µM
same,TGI,[55],> 100 µM
same,TGI,[9],> 100 µM
same,TGI,[56],> 100 µM
same,TGI,[10],> 100 µM
same,TGI,[11],> 100 µM
same,TGI,[12],> 100 µM
same,TGI,[14],64.5 µM
same,TGI,[15],84.2 µM
same,TGI,[16],> 100 µM
same,TGI,[17],> 100 µM
same,TGI,[18],> 100 µM
same,TGI,[19],> 100 µM
same,TGI,[20],> 100 µM
same,TGI,[57],> 100 µM
same,TGI,[22],> 100 µM
same,TGI,[23],> 100 µM
same,TGI,[24],> 100 µM
same,TGI,[25],> 100 µM
same,TGI,[28],> 100 µM
same,TGI,[29],> 100 µM
same,TGI,[30],> 100 µM
same,TGI,[31],> 100 µM
same,TGI,[58],> 100 µM
same,TGI,[32],> 100 µM
same,TGI,[33],> 100 µM
same,TGI,[34],44.6 µM
same,TGI,[35],> 100 µM
same,TGI,[36],> 100 µM
same,TGI,[37],> 100 µM
same,TGI,[38],> 100 µM
same,TGI,[39],> 100 µM
same,TGI,[40],> 100 µM
same,TGI,[41],> 100 µM
same,TGI,[42],> 100 µM
same,TGI,[43],> 100 µM
same,TGI,[44],> 100 µM
same,TGI,[59],> 100 µM
same,TGI,[47],> 100 µM
same,TGI,[48],> 100 µM
same,TGI,[49],> 100 µM
same,TGI,[51],> 100 µM
same,TGI,[53],> 100 µM
COc1ccc(OC)c2[nH]c(Sc3c([N+](=O)[O-])ncn3C)nc12,TGI,[1],> 100 µM
same,TGI,[54],97.3 µM
same,TGI,[2],> 100 µM
same,TGI,[3],> 100 µM
same,TGI,[4],42.6 µM
same,TGI,[6],26.6 µM
same,TGI,[7],48.8 µM
same,TGI,[8],35.1 µM
same,TGI,[55],41.3 µM
same,TGI,[9],51.2 µM
same,TGI,[56],38.4 µM
same,TGI,[10],51.6 µM
same,TGI,[11],38.8 µM
same,TGI,[14],> 100 µM
same,TGI,[15],44.4 µM
same,TGI,[16],> 100 µM
same,TGI,[17],85.7 µM
same,TGI,[19],> 100 µM
same,TGI,[20],60.6 µM
same,TGI,[57],> 100 µM
same,TGI,[21],27.3 µM
same,TGI,[22],88.3 µM
same,TGI,[23],50.2 µM
same,TGI,[24],29.3 µM
same,TGI,[26],47.4 µM
same,TGI,[27],51.9 µM
same,TGI,[28],> 100 µM
same,TGI,[30],45.6 µM
same,TGI,[31],64.7 µM
same,TGI,[58],> 100 µM
same,TGI,[32],50.1 µM
same,TGI,[34],60.1 µM
same,TGI,[35],35.9 µM
same,TGI,[36],68.6 µM
same,TGI,[37],> 100 µM
same,TGI,[38],34.2 µM
same,TGI,[40],54.6 µM
same,TGI,[41],35.4 µM
same,TGI,[42],> 100 µM
same,TGI,[43],37.8 µM
same,TGI,[45],> 100 µM
same,TGI,[59],> 100 µM
same,TGI,[47],> 100 µM
same,TGI,[48],61.6 µM
same,TGI,[49],> 100 µM
same,TGI,[50],30.1 µM
same,TGI,[51],34.1 µM
same,TGI,[52],93.5 µM
same,TGI,[53],43.5 µM
